≈ marks a conversion by molar mass, not a printed value. Where a SMILES comes first, the peptide text is derived from it. Bridges are numbered along the chain shown (N, C = ends).
What was measured:
[1] = system: E. coli LKFZ GL2; assay: MIC/MBC, clinical isolate; format: cell-based; settings: source pig stool
Experimental: (§1) The minimum inhibitory concentration (MIC) refers to the lowest concentration that can produce a significant hindrance to bacterial growth in a drug sensitivity test by adopting a broth dilution, with certain refinements and modifications based on the previous description ([25], [26]). In short, MccJ25 was dissolved in sterilized distilled water (SDW), serial 2-fold dilutions were prepared in Mueller-Hinton broth (MHB) through a 96-well microtiter plate, and the final concentration of MccJ25 was maintained in the range of 0.003125 to 256 μg/mL. Then, 2 μL of standard and clinically relevant overnight broth cultures of bacteria were inoculated into each well at a concentration of 5 × 10^6 CFU/mL. Microtiter plates were incubated at 37°C for one full day. Two groups were set up: positive (medium with inoculum) and negative (medium only) controls. The minimum bactericidal concentration (MBC) was measured in LB medium and refers to the first drug dilution value at which the initial bacterial concentration was reduced by 99.99%. The final analysis was determined by the results of three replicated and independent experiments. To further assess and clarify the antimicrobial activity of MccJ25, the protective ability against E. coli adhesion, live/dead assay, and killing curve were performed, the detailed methods were provided in Supplementary Materials .

[2] = system: E. coli LKFZ GZM4; assay: MIC/MBC, clinical isolate; format: cell-based; settings: source pig stool
Experimental: as §1

[3] = system: E. coli K88; format: cell-based; settings: sub-MIC levels, 25-d passage period; six biological replicates
Experimental: To quantify the production status of the bacteria, the bacterial density was measured after incubating for 24 h. Cultures with the second highest concentration allowed to grow (OD600 ≥ 2) were diluted 1:100 with MccJ25 MHB at different concentrations than those described above. Cultures that grew above the indicated MIC levels were plated on LB agar plates, and their MIC levels were determined by the broth macrodilution method.

[4] = system: plasmid DNA (pGEM-bGAL); settings: 400 ng plasmid DNA, 1 h room temperature, 1% agarose gel
Experimental: Based on the previously worked out method ([27]), briefly, gel retardation experiments were carried out, in which 400 ng of plasmid DNA (pGEM-bGAL; Promega) was increasingly bound to […] of binding buffer in MccJ25 binding and incubated for 1 h at room temperature. Then, […] of local loading buffer in each sample was […], and a 12 μL aliquot was bound to a 1% agarose gel. Finally, 0.5× Tris-borate-EDTA buffer was used for electrophoresis.

[5] = system: E. coli K88 on IPEC-1 cells; assay: Protection against E. coli K88 adhesion and colonization of IPEC-1 cells; format: cell-based; settings: 1, 2, 4, 8 × MIC for 3 h, then E. coli K88 for 2 h; plate counts; 6 biological replicates
Experimental: Capacity of against E. coli K88 adhesion and colonization of IPEC-1 cells was evaluated. IPEC-1 cells were cultured with or without MccJ25 for 3 h in the absence or presence of E. coli K88 for 2 h. The E. coli K88 adhesion and colonization in the IPEC-1 cells was determined. E. coli K88 (mean CFU/ml ± SEMs) were determined by plate counts, and determined from three individual experiments.
Figure S1. MccJ25 enhances intestinal epithelial cell to against E. coli K88 infection. […] IPEC-1 cells were cultured in the presence or absence of 1, 2, 4, 8 × MIC of MccJ25 for 3 h, then cells were treated with E. coli K88 for 2 h. The numbers of E. coli K88 were counted. E. coli K88 (mean CFU/ml ± SEMs) were determined by plate counts from 6 biological replicates. **P ≤ 0.01, ***P ≤ 0.001.

[6] = system: E. coli K88; assay: Sytox Green influx (membrane permeabilization); format: cell-based; settings: 0.5 × to 5 × MIC, dose dependent; ex 485 nm, em 520 nm
Experimental: E. coli K88 cells were incubated at 37°C until growth reached the mid-log phase stage, and the cells were washed and resuspended in 10 mM NaH2PO4, pH 7.2 (2 × 10^7/mL). Cells were then incubated with […] Sytox Green for 15 min in a light-free environment.

[7] = LB medium, 99.99% reduction, three independent experiments
[8] = broth dilution in MHB, 37°C, three independent experiments

SMILES: CC[C@H](C)[C@H](NC(=O)CNC(=O)[C@@H](NC(=O)[C@H](Cc1ccccc1)NC(=O)[C@H](Cc1ccc(O)cc1)NC(=O)[C@@H]1CCC(=O)NCC(=O)NCC(=O)N[C@@H](C)C(=O)NCC(=O)N[C@@H](Cc2c[nH]cn2)C(=O)N[C@@H](C(C)C)C(=O)N2CCC[C@H]2C(=O)N1)C(C)C)C(=O)NCC(=O)N[C@H](C(=O)N1CCC[C@H]1C(=O)N[C@H](C(=O)N[C@@H](CO)C(=O)N[C@@H](Cc1ccccc1)C(=O)N[C@@H](Cc1ccc(O)cc1)C(=O)NCC(=O)O)[C@@H](C)CC)[C@@H](C)O [MccJ25, microcin J25] (GGAGHVPEYFVGIGTPISFYG-OH; lactam N-8 (inferred); C-terminus assumed)
- MBC [1, 7]: 0.500 µg/mL (≈ 0.237 µM)
- MIC [1, 8]: 0.250 µg/mL (≈ 0.119 µM)
- MIC/MBC ([1]; ratio): 0.500
- MBC [2, 7]: 1.000 µg/mL (≈ 0.475 µM)
- MIC [2, 8]: 0.250 µg/mL (≈ 0.119 µM)
- MIC/MBC ([2]; ratio): 0.250
- resistant mutants during serial passage [3]: No resistant mutants were detected
- weight ratio (MccJ25:DNA) at which DNA migration was slightly inhibited [4]: above 2.0
- E. coli K88 adhesion and colonization [5]: significantly protects
- Sytox Green fluorescence / membrane integrity [6]: membrane integrity was significantly disrupted
